# Source: article PMC6162288, “On-chip spatiotemporal electrophysiological analysis of human stem cell derived cardiomyocytes enables quantitative assessment of proarrhythmia in drug development” (Scientific Reports, 2018)
# Where “and” joins values, the source holds several entries; their conditions need not be identical. Identical values can stand only once. Like-named read-outs stand apart in the source and are kept apart here.
# Tests used:
# lined-up hESC-CMs = assay: MEA field potential recording of lined-up hESC-CMs (cFPD, CT, their STVs, ISI, beat rate, arrest); format: cell-based, human; details: for BR (beat rate) / Cond. Time (CT) / ISI (inter-spike interval) / STVCT / cFPD / STVcFPD: change vs Ctrl.; for Arrest: arrest cases/chips; for CT: at equivalent concentrations of Nav1.5 IC50
# Procedure: Human embryonic stem cell-derived cardiomyocytes clusters (hES-CMCs) were shipped from Cellectis (hES-CMCTM002, hES cell line SA002, Gothenburg, Sweden)[42],[43], and maintained in Dulbecco’s modified Eagle’s medium (DMEM) supplemented 20% heat-inactivated fetal bovaine serum, 1 mM GlutaMax, 100 U/mL penicillin, 0.1 mg/mL streptomycin, 1% nonessential amino acids and 0.1 mM β-mercaptoethanol (Invitrogen, Carsbad, CA, USA). Dispersed cardiomyocytes were isolated from hES-CMCs by a modification of the methods of Norström et al.[44]–[48]. […] The supernatant was gently aspirated with pipette, and a 5-hold volume of DMEM was added as stop solution. Remaining clusters were treats ed with the above process with several times. The supernatants were collected and centrifuged with 200 × g for 2–3 min at 4 °C. The resulting supernatant including dispersed cells was seeded into agarose microchambers on an MEA chip (MED-P530A; AlphaMED scientific. Co. Ltd., Japan)[40].
# The MEA chip surface was prepared as follows. First, the chip surface was coated with collagen type I-C (Nitta Gelatin, Japan). After drying, the chip surface was coated with a 0.1% agarose gel. […] At >30 min before the start of experiment, the medium was changed to 2 mL pre-warmed fresh maintenance medium per chip.
# Extracellular potential recordings of the lined-up hESC-CMs were performed using the MEA system at a sampling rate of 10 kHz with a low path filter of 2 kHz and high path filter of 1 Hz, and signals were amplified by 100–50,000 using the amplifier. The MEA chip with lined-up hESC-CMs was set in the FP measurement device and placed in a humidified cell culture incubator at 37 °C, 5% CO2. The signals were analyzed by Igor Pro 6.0 (WaveMetrics, Inc., USA) and FlexPro 7.0 (Weisang GmbH, Germany).
# We adopted the same drug administration protocol as we examined previously[40] (Fig. 2B). Briefly, the MEA chips of lined-up cells for experiments were selected from the chips having 0.6–1.1 Hz beating frequency and ventricle-like waveforms of FP recordings (see Fig. 1B,D). The MEA chip was placed in the holder of the FP measurement device, and equilibrated for 5 min, and then the control FP waveforms were recorded for 10 min. Subsequently, the drug was applied to the medium at 1% dilution in serially increasing additions, and the FP waveforms were recorded for 10 min at each concentration. Finally, the drug-containing medium was replaced with fresh medium after washing three times. The last 50 beats extracted from 10 min recorded FP waveform data was used for beat rate, FPD (the time from first depolarization peak to broad repolarization peak) and CT (the time difference of the first peaks between separately placed electrodes in lined-upped cell-network) measurement at each concentration (Fig. 2C).
# It was normalized (cFPD) to the beating rate of cardiomyocytes using Bazett’s correction formula based on the comparison of the slope of a plot of inter-spike interval and FPD, or corrected FPD by Bazett’s or Fridericia’s formulae (Fig. 3). The short-term variability (STV) of cFPD and CT, which was defined as the mean distance of points perpendicular to the line of identity in the Poincaré plot, was calculated ( STV=∑|D(n+1)−Dn|/(n×2) , where Dn represents the FPD and CT of n-th beating). STVs were last 50 beat data from 5 min extraction of cFPD and CT. To assess the arrhythmogenicity risk of test drugs, the mean values of cFPD, STVcFPD, CT and STVCT of each drug were plotted.
# Nav1.5 = details: cited from earlier work
# hERG = details: read-out: IC50 hERG; cited from earlier work
# Cav1.2 = details: cited from earlier work
# [1] = cited from earlier work
# [2] = Conc. 10^5 nM (100 μM), listed as terfenadine
compound,measurement,setting,value
"O=C(NCC1CCCCN1)c1cc(OCC(F)(F)F)ccc1OCC(F)(F)F (stereo not shown) [Flecainide, flecainide]",STVcFPD increase,lined-up hESC-CMs; 10–100 μM,about 50%
same,BR (beat rate),lined-up hESC-CMs; Conc. 10 nM,2.6%
same,Cond. Time (CT),lined-up hESC-CMs; Conc. 10 nM,−3.2%
same,ISI (inter-spike interval),lined-up hESC-CMs; Conc. 10 nM,−2.5%
same,STVCT,lined-up hESC-CMs; Conc. 10 nM,7.0%
same,cFPD,lined-up hESC-CMs; Conc. 10 nM,0.13%
same,Cond. Time (CT),lined-up hESC-CMs; Conc. 10^2 nM (0.1 μM),12%
same,STVCT,lined-up hESC-CMs; Conc. 10^2 nM (0.1 μM),61%
same,STVcFPD,lined-up hESC-CMs; Conc. 10^2 nM (0.1 μM),−16%
same,cFPD,lined-up hESC-CMs; Conc. 10^2 nM (0.1 μM),3.4%
same,BR (beat rate),lined-up hESC-CMs; Conc. 10^2 nM,3.9%
same,ISI (inter-spike interval),lined-up hESC-CMs; Conc. 10^2 nM,−3.7%
same,Cond. Time (CT),lined-up hESC-CMs; Conc. 10^3 nM (1 μM),−0.65%
same,STVCT,lined-up hESC-CMs; Conc. 10^3 nM (1 μM),36%
same,STVcFPD,lined-up hESC-CMs; Conc. 10^3 nM (1 μM),0.32%
same,cFPD,lined-up hESC-CMs; Conc. 10^3 nM (1 μM),1.8%
same,BR (beat rate),lined-up hESC-CMs; Conc. 10^3 nM,4.5%
same,ISI (inter-spike interval),lined-up hESC-CMs; Conc. 10^3 nM,−4.2%
same,Cond. Time (CT),lined-up hESC-CMs; Conc. 10^4 nM (10 μM),64% and 65%
same,STVCT,lined-up hESC-CMs; Conc. 10^4 nM (10 μM),288%
same,STVcFPD,lined-up hESC-CMs; Conc. 10^4 nM (10 μM),41%
same,cFPD,lined-up hESC-CMs; Conc. 10^4 nM (10 μM),0.11%
same,STVCT,"lined-up hESC-CMs; Conc. 10^4 nM (10 μM), listed as flecainide",287%
same,BR (beat rate),lined-up hESC-CMs; Conc. 10^4 nM,5.1%
same,ISI (inter-spike interval),lined-up hESC-CMs; Conc. 10^4 nM,−4.7%
same,Cond. Time (CT),lined-up hESC-CMs; Conc. 10^5 nM (100 μM),−3.6%
same,STVCT,lined-up hESC-CMs; Conc. 10^5 nM (100 μM),263%
same,STVcFPD,lined-up hESC-CMs; Conc. 10^5 nM (100 μM),54%
same,cFPD,lined-up hESC-CMs; Conc. 10^5 nM (100 μM),−14%
same,Arrest,lined-up hESC-CMs; Conc. 10^5 nM,1/4
same,BR (beat rate),lined-up hESC-CMs; Conc. 10^5 nM,5.8%
same,ISI (inter-spike interval),lined-up hESC-CMs; Conc. 10^5 nM,−5.1%
same,CT,lined-up hESC-CMs,increased
same,FPD,lined-up hESC-CMs; up to 100 μM,did not show FPD prolongation
same,IC50,Nav1.5; read-out: IC50 Nav1.5,34 µM
same,IC50,"Nav1.5; ref Table 1, read-out: Nav1.5 IC50",~34 µM
same,IC50,hERG,1.8 µM
same,IC50,"Cav1.2; read-out: Cav1.2 IC50, ref Table 1",56 µM
same,IC50,Cav1.2; read-out: IC50 Cav1.2,55.9 µM
"CC(C)(C)c1ccc(C(O)CCCN2CCC(C(O)(c3ccccc3)c3ccccc3)CC2)cc1 (stereo not shown) [Terfenadine, terfenadine]",CT increase,"lined-up hESC-CMs; 3 μM, n = 4, P < 0.05",189%
same,BR (beat rate),lined-up hESC-CMs; Conc. 10 nM,4.6%
same,Cond. Time (CT),lined-up hESC-CMs; Conc. 10 nM,32%
same,ISI (inter-spike interval),lined-up hESC-CMs; Conc. 10 nM,−4.0%
same,STVCT,lined-up hESC-CMs; Conc. 10 nM,37%
same,STVcFPD,lined-up hESC-CMs; Conc. 10 nM,76%
same,cFPD,lined-up hESC-CMs; Conc. 10 nM,2.3%
same,Cond. Time (CT),lined-up hESC-CMs; Conc. 10^2 nM (0.1 μM),4.0%
same,STVCT,lined-up hESC-CMs; Conc. 10^2 nM (0.1 μM),16%
same,STVcFPD,lined-up hESC-CMs; Conc. 10^2 nM (0.1 μM),−3.4%
same,cFPD,lined-up hESC-CMs; Conc. 10^2 nM (0.1 μM),2.8%
same,BR (beat rate),lined-up hESC-CMs; Conc. 10^2 nM,2.0%
same,ISI (inter-spike interval),lined-up hESC-CMs; Conc. 10^2 nM,−2.0%
same,Cond. Time (CT),lined-up hESC-CMs; Conc. 10^3 nM (1 μM),101%
same,STVCT,lined-up hESC-CMs; Conc. 10^3 nM (1 μM),228%
same,STVcFPD,lined-up hESC-CMs; Conc. 10^3 nM (1 μM),37%
same,cFPD,lined-up hESC-CMs; Conc. 10^3 nM (1 μM),0.25%
same,STVCT,"lined-up hESC-CMs; Conc. 10^3 nM (1 μM), listed as terfenadine",228%
same,BR (beat rate),lined-up hESC-CMs; Conc. 10^3 nM,−3.0%
same,ISI (inter-spike interval),lined-up hESC-CMs; Conc. 10^3 nM,3.1%
same,Cond. Time (CT),lined-up hESC-CMs; Conc. 10^4 nM (10 μM),189%
same,STVCT,lined-up hESC-CMs; Conc. 10^4 nM (10 μM),511%
same,STVcFPD,lined-up hESC-CMs; Conc. 10^4 nM (10 μM),65%
same,cFPD,lined-up hESC-CMs; Conc. 10^4 nM (10 μM),−26%
same,cFPD,"lined-up hESC-CMs; Conc. 10^4 nM (10 μM), listed as terfenadine",−26%
same,Arrest,lined-up hESC-CMs; Conc. 10^4 nM,3/7
same,BR (beat rate),lined-up hESC-CMs; Conc. 10^4 nM,−38%
same,ISI (inter-spike interval),lined-up hESC-CMs; Conc. 10^4 nM,122%
same,Cond. Time (CT),lined-up hESC-CMs; Conc. 10^5 nM (100 μM),198%
same,STVCT,lined-up hESC-CMs; Conc. 10^5 nM (100 μM),143%
same,STVcFPD,lined-up hESC-CMs; Conc. 10^5 nM (100 μM),243%
same,cFPD,lined-up hESC-CMs; Conc. 10^5 nM (100 μM),−73%
same,STVcFPD,lined-up hESC-CMs; [2],243%
same,cFPD,lined-up hESC-CMs; [2],−78%
same,Arrest,lined-up hESC-CMs; Conc. 10^5 nM,2/4
same,BR (beat rate),lined-up hESC-CMs; Conc. 10^5 nM,−88%
same,ISI (inter-spike interval),lined-up hESC-CMs; Conc. 10^5 nM,744%
same,CT,lined-up hESC-CMs,increased
same,FPD,lined-up hESC-CMs; concentrations more than 10 μM,FPD shortening
same,EPTC,[1]; effective therapeutic plasma concentration,3.3 to 9.7 nM
same,Unbound,[1]; unbound therapeutic plasma concentration,0.1 to 0.29 nM
